According to patent US6084130A, “Aryl substituted bicyclic amines as selective dopamine D3 ligands” (Pharmacia & Upjohn Company, priority 1997, dated 2000):

How the values were obtained:
D2-DOP-CLONE [1] = molecular target: T1, D2-DOP-CLONE (Rattus norvegicus, UniProt P61169); assay: Competition binding against [3H]-86170, cloned rat D2 receptors expressed in CHO-K1 cells (Table I); parameters: key to Ki (nM): *: indicates compound was inactive; settings: ligand 86170 (2 nM)
T1 construct: expressed in transfected cells; host or cells: CHO-K1
T1 sequence (P61169 whole entry): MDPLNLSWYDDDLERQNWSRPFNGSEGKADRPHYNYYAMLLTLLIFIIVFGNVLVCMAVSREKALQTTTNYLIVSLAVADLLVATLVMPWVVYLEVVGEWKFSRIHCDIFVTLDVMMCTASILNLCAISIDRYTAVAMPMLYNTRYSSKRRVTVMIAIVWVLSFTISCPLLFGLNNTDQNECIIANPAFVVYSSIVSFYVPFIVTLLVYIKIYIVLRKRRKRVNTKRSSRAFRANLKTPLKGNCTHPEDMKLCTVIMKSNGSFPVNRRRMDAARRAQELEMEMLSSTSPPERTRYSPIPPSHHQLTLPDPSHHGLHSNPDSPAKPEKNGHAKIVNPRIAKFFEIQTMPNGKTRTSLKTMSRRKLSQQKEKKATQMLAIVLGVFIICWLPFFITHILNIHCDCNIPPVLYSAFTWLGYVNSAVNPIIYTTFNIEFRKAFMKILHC
Method: (§1) Competition binding experiments employed eleven dilutions of test compounds of Formula I competing with [^3 H]-5-(dipropylamino)-5,6-dihydro-4H-imidazo(4,5,1-ij)quinolin-2(1H)-one (R-enantiomer) ("86170") (62 Ci/mmol, 2 nM) and [^3 H]-spiperone ("SPI") (107 Ci/mmol, 0.5 nM) for D2 and D3 binding sites, respectively. (Lahti, R. A., Eur. J. Pharmacol., 202, 289 (1991)) In each experiment, cloned rat receptors expressed in CHO-K1 cells were used. (Chio, C. L., Nature, 343, 266 (1990); and Huff, R. M., Mol. Pharmacol. 45, 51-60 (1993)).

D3-DOP-CLONE [2] = molecular target: T2, D3-DOP-CLONE (Rattus norvegicus, UniProt P19020); assay: Competition binding against [3H]-spiperone, cloned rat D3 receptors expressed in CHO-K1 cells (Table I); parameters: key to Ki (nM): *: indicates compound was inactive; settings: ligand SPI (0.5 nM)
T2 construct: expressed in transfected cells; host or cells: CHO-K1
T2 sequence (P19020 whole entry): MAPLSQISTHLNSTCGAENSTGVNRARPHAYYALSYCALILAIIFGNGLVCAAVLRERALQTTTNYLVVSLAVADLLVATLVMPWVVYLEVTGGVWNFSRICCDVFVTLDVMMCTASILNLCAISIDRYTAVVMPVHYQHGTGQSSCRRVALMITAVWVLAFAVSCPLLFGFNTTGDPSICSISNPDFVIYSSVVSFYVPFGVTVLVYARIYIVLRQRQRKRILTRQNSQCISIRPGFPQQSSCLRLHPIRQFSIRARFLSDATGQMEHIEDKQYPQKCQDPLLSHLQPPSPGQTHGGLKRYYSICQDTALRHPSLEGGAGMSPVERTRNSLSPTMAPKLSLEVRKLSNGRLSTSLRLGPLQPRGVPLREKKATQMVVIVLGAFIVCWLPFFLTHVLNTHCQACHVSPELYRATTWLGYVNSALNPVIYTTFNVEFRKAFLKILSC
Method: as §1

D3-DOP-CLONE [3] = molecular target: T2, D3-DOP-CLONE; assay: Competition binding against [3H]-7-OH-DPAT, cloned rat D3 receptors expressed in CHO-K1 cells (Table II); settings: ligand 7-OH-DPAT (0.5 nM)
Method: as §1, with “As was done for Table I, competition binding” for “Competition binding”, “Formula II” for “Formula I”, “[^3 H]-7-OH-DPAT ("7-OH-DPAT")” for “[^3 H]-spiperone ("SPI")”, “Mol. Pharmacol.,” for “Mol. Pharmacol.”, “51-60 (1993). Ki values were calculated with the Chen-Prushoff equation. The results are shown in Table II for compounds prepared under Scheme 5.” for “51-60 (1993)).”

D2-DOP-CLONE [4] = molecular target: T1, D2-DOP-CLONE; assay: Competition binding against [3H]-86170, cloned rat D2 receptors expressed in CHO-K1 cells (Table II); settings: ligand 86170 (2 nM)
Method: as §1, with “As was done for Table I, competition binding” for “Competition binding”, “Formula II” for “Formula I”, “[^3 H]-7-OH-DPAT ("7-OH-DPAT")” for “[^3 H]-spiperone ("SPI")”, “Mol. Pharmacol.,” for “Mol. Pharmacol.”, “51-60 (1993). Ki values were calculated with the Chen-Prushoff equation. The results are shown in Table II for compounds prepared under Scheme 5.” for “51-60 (1993)).”

Dopamine = Dopamine screen; format: binding

Structure (SMILES) | Ki (D2-DOP-CLONE [1]) [nM] | Ki (D3-DOP-CLONE [2]) [nM] | further results
CCCN(CCC)[C@@H]1CCc2ccc(CNS(=O)(=O)c3ccc([N+](=O)[O-])cc3)cc2C1 [Example 4, (R)-4-Nitro-N-[[7-(dipropylamino)-5,6,7,8-tetrahydro-2-naphthalenyl]methyl]benzenesulfonamide] | 772 | 109 | 
CCCNC1CCc2nc(OS(=O)(=O)c3ccc(Cl)cc3)ccc2C1 (centres unmarked) [Compound 52] |  |  | Ki (D3-DOP-CLONE [3]): 6 nM; Ki (D2-DOP-CLONE [4]): 357 nM
CCCN(CCC)[C@@H]1CCc2ccc(CNC(=O)c3ccc(Cl)cc3)cc2C1 [Example 8, (R)-4Chloro-N-[[7-(dipropylamino)-5,6,7,8-tetrahydro-2-naphthalenyl]methyl]benzamide] | 177 | 87 | 
CCCN(CCC)[C@@H]1CCc2ccc(CNS(=O)(=O)c3ccc(C#N)cc3)cc2C1 [Example 2, (R)-4-Cyano-N-[[7-(dipropylamino)-5,6,7,8-tetrahydro-2-naphthalenyl]methyl]benzenesulfonamide] | 1440 | 32 | 
CCCN(CCC)[C@@H]1CCc2ccc(CNS(=O)(=O)c3cn(C)cn3)cc2C1 [Example 6, (R)-N-[[7-(Dipropylamino)-5,6,7,8-tetrahydro-2-naphthalenyl]methyl]1-methyl-1H-imidazole-4-sulfonamide] | 1680 | 1450 | 
CCCN(CCC)C1CCc2nc(OS(=O)(=O)c3ccc(Cl)cc3)ccc2C1 (centres unmarked) [Compound 53] |  |  | Ki (D3-DOP-CLONE [3]): 3 nM; Ki (D2-DOP-CLONE [4]): 184 nM
CCCN(CCC)[C@@H]1CCc2ccc(CNC(=O)c3ccc(C#N)cc3)cc2C1 [Example 9, (R)-4-Cyano-N-[[7-(dipropylamino)-5,6,7,8-tetrahydro-2-naphthalenyl]methyl]benzamide] |  |  | Ki (nM) (D2-DOP-CLONE [1]): *; Ki (nM) (D3-DOP-CLONE [2]): *
CCCN(CCC)[C@@H]1CCc2ccc(NS(=O)(=O)c3ccc(C#N)cc3)cc2C1 [Example 11, (R)-4-Cyano-N-[7-(dipropylamino)-5,6,7,8-tetrahydro-2-naphthalenyl]benzenesulfonamide] | > 2240 | 195 | 
CCCN(CCC)[C@@H]1CCc2ccc(CNS(=O)(=O)c3ccc(Cl)cc3)cc2C1 [Example 3, (R)-4-Chloro-N-[[7-(dipropylamino)-5,6,7,8-tetrahydro-2-naphthalenyl]methyl]benzenesulfonamide] | 206 | 12 | 
CCCN(CCC)[C@@H]1CCc2ccc(NS(=O)(=O)c3ccc(Cl)cc3)cc2C1 [Example 10, (R)-4-Chloro-N-[7-(dipropylamino)-5,6,7,8-tetrahydro-2-naphthalenyl]benzenesulfonamide] | 324 | 18 | 
CCCN(CCC)[C@@H]1CCc2ccc(CNS(=O)(=O)c3cccc(C#N)c3)cc2C1 [Example 5, (R)-3-Cyano-N-[[7-(dipropylamino)-5,6,7,8-tetrahydro-2-naphthalenyl]methyl]benzenesulfonamide] | 786 |  | Ki (nM) (D3-DOP-CLONE [2]): *; activity in dopamine screen (Dopamine): Inactive
